PubChem BioAssay (NCI)
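Following 48 hours of exposure in 96-well plates, responses at five concentrations were used to interpolate endpoints linearly. GI50 = concentration required for 50% inhibition of growth. TGI is the concentration that stops growth completely.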

Legend:
Experiment in all cases: DTP human tumour cell line panel, 48 h; in the data active means GI50 below about 0.43 µM; inactive means the rest
U251 CNS = tested on: U251 CNS
TK-10 renal = tested on: TK-10 renal
NCI-H460 lung = tested on: NCI-H460 lung
SK-MEL-28 melanoma = tested on: SK-MEL-28 melanoma
UACC-62 melanoma = tested on: UACC-62 melanoma
SF-295 CNS = tested on: SF-295 CNS
UO-31 renal = tested on: UO-31 renal
BT-549 breast = tested on: BT-549 breast
EKVX NSCLC = tested on: EKVX NSCLC
LOX IMVI melanoma = tested on: LOX IMVI melanoma

O=C1CCCC(=O)C1C(=O)c1ccc(C(F)(F)F)cc1[N+](=O)[O-]
> 100 µM: TGI (U251 CNS) | TGI (TK-10 renal) | TGI (NCI-H460 lung) | TGI (SK-MEL-28 melanoma) | TGI (UACC-62 melanoma) | TGI (SF-295 CNS) | TGI (UO-31 renal) | TGI (BT-549 breast)
inactive: GI50 (U251 CNS) > 100 µM | GI50 (TK-10 renal) > 100 µM | GI50 (NCI-H460 lung) > 100 µM | GI50 (SK-MEL-28 melanoma) > 100 µM | GI50 (UACC-62 melanoma) > 100 µM | GI50 (SF-295 CNS) > 100 µM | GI50 (UO-31 renal) > 100 µM | GI50 (BT-549 breast) > 100 µM

CN1CCc2cc(O)c3cc2C1Cc1ccc(cc1)Oc1cc(ccc1O)CC1c2c(cc4c(c2O3)OCO4)CCN1C (stereo not given)
> 100 µM: TGI (U251 CNS) | TGI (NCI-H460 lung)
92.2 µM: TGI (TK-10 renal)
47.5 µM: TGI (UACC-62 melanoma)
46.4 µM: TGI (SK-MEL-28 melanoma)
70.7 µM: TGI (EKVX NSCLC)
9.46 µM: TGI (UO-31 renal)
43.6 µM: TGI (SF-295 CNS)

O=C(NCCCCCCNC(=O)NC1OCC(O)C(O)C1O)NC1OCC(O)C(O)C1O (stereo not given)
> 100 µM: TGI (U251 CNS) | TGI (TK-10 renal) | TGI (LOX IMVI melanoma) | TGI (NCI-H460 lung) | TGI (EKVX NSCLC) | TGI (SK-MEL-28 melanoma) | TGI (UACC-62 melanoma) | TGI (SF-295 CNS)

O=C(OC(CNc1c(C(=O)c2ccccc2)c(=O)n(Cc2ccccc2)c(=O)n1Cc1ccccc1)CN1CCCCC1)c1ccccc1 (stereo not given)
42.4 µM: TGI (UACC-62 melanoma)
36 µM: TGI (UO-31 renal)
25.4 µM: TGI (LOX IMVI melanoma)
71.6 µM: TGI (TK-10 renal)
82.9 µM: TGI (BT-549 breast)
inactive: GI50 (U251 CNS) 15.2 µM | GI50 (TK-10 renal) 23.6 µM | GI50 (LOX IMVI melanoma) 12.8 µM | GI50 (NCI-H460 lung) 21.1 µM | GI50 (EKVX NSCLC) 38.3 µM | GI50 (UACC-62 melanoma) 20.7 µM | GI50 (SF-295 CNS) 22.1 µM | GI50 (UO-31 renal) 16.7 µM | GI50 (BT-549 breast) 25.5 µM
42.5 µM: TGI (SF-295 CNS)
46.7 µM: TGI (NCI-H460 lung)
29 µM: TGI (U251 CNS)
> 100 µM: TGI (EKVX NSCLC)

O=C(O)CP(=O)(c1ccccc1)c1ccccc1.O=C(O)CP(=O)(c1ccccc1)c1ccccc1.[Cd]
49.1 µM: TGI (UO-31 renal)
28.9 µM: TGI (U251 CNS)
34.5 µM: TGI (TK-10 renal)
6.31 µM: TGI (UACC-62 melanoma)
inactive: GI50 (U251 CNS) 14.3 µM | GI50 (TK-10 renal) 16.9 µM | GI50 (NCI-H460 lung) 3.9 µM | GI50 (SK-MEL-28 melanoma) 17.9 µM | GI50 (UACC-62 melanoma) 2.2 µM | GI50 (SF-295 CNS) 30.5 µM | GI50 (UO-31 renal) 21.6 µM
41.8 µM: TGI (SK-MEL-28 melanoma)
> 100 µM: TGI (NCI-H460 lung) | TGI (SF-295 CNS)

COc1cc2c3c(c1OCc1ccccc1)NCCC3NCC2 (stereo not given)
> 100 µM: TGI (U251 CNS) | TGI (TK-10 renal) | TGI (LOX IMVI melanoma) | TGI (NCI-H460 lung) | TGI (EKVX NSCLC) | TGI (UACC-62 melanoma) | TGI (SF-295 CNS) | TGI (UO-31 renal)

CCCCCCCCCCCCCC(=O)OC1C(CO)OC(=O)C1O (stereo not given)
> 100 µM: TGI (U251 CNS) | TGI (TK-10 renal) | TGI (LOX IMVI melanoma) | TGI (NCI-H460 lung) | TGI (EKVX NSCLC) | TGI (UACC-62 melanoma) | TGI (SF-295 CNS) | TGI (UO-31 renal)

O=C(Nc1cccc(-n2cc(-c3ccncc3)c(-c3ccc(O)c(Cl)c3)n2)c1)c1ccc(N2CCOCC2)c(C(F)(F)F)c1
> 50 µM: TGI (U251 CNS) | TGI (TK-10 renal) | TGI (LOX IMVI melanoma) | TGI (NCI-H460 lung) | TGI (SK-MEL-28 melanoma) | TGI (UACC-62 melanoma) | TGI (UO-31 renal) | TGI (BT-549 breast)
4.32 µM: TGI (SF-295 CNS)
inactive: GI50 (U251 CNS) 0.917 µM | GI50 (TK-10 renal) > 50 µM | GI50 (LOX IMVI melanoma) 1.61 µM | GI50 (NCI-H460 lung) 1.82 µM | GI50 (SK-MEL-28 melanoma) 3.75 µM | GI50 (UACC-62 melanoma) > 50 µM | GI50 (SF-295 CNS) 1.24 µM | GI50 (UO-31 renal) 2.99 µM | GI50 (BT-549 breast) 2.35 µM

O=C1C2C3CCC(C2C(=O)N1CO)C1C2C(=O)N(CO)C(=O)C2C31 (stereo not given)
> 54.5 µM: TGI (NCI-H460 lung)
> 61.9 µM: TGI (LOX IMVI melanoma)
> 56.2 µM: TGI (U251 CNS)
> 100 µM: TGI (TK-10 renal) | TGI (EKVX NSCLC) | TGI (SK-MEL-28 melanoma) | TGI (UACC-62 melanoma) | TGI (SF-295 CNS) | TGI (UO-31 renal)

CO[C@]12CCC(=O)N1C=Cc1c2[nH]c2ccccc12
> 100 µM: TGI (TK-10 renal) | TGI (LOX IMVI melanoma) | TGI (NCI-H460 lung) | TGI (EKVX NSCLC) | TGI (SK-MEL-28 melanoma) | TGI (UACC-62 melanoma) | TGI (SF-295 CNS) | TGI (UO-31 renal)

N#CC(C#N)=Cc1ccc(Oc2ccccc2)cc1
59.2 µM: TGI (SF-295 CNS)
30.8 µM: TGI (LOX IMVI melanoma)
35 µM: TGI (UACC-62 melanoma)
> 100 µM: TGI (TK-10 renal) | TGI (NCI-H460 lung) | TGI (EKVX NSCLC)
> 57 µM: TGI (U251 CNS)
25.3 µM: TGI (SK-MEL-28 melanoma)
> 71.4 µM: TGI (UO-31 renal)

COc1cc(C2C(C(=O)OCc3ccccc3)=C(C)NC(C)=C2C(=O)OCc2ccccc2)cc(OC)c1OC
> 100 µM: TGI (U251 CNS) | TGI (NCI-H460 lung) | TGI (EKVX NSCLC) | TGI (UACC-62 melanoma) | TGI (SF-295 CNS) | TGI (UO-31 renal) | TGI (BT-549 breast)
inactive: GI50 (U251 CNS) 4.37 µM | GI50 (NCI-H460 lung) 3.54 µM | GI50 (EKVX NSCLC) 2.81 µM | GI50 (UACC-62 melanoma) 3.62 µM | GI50 (SF-295 CNS) 2.86 µM | GI50 (UO-31 renal) 2.22 µM | GI50 (BT-549 breast) 3.3 µM

CC1=C2[C@@H](c3ccccc3)C3C=CC2(c2ccccc23)N(C(=O)Nc2cccc3ccccc23)C1=O (stereo not given in full)
> 100 µM: TGI (U251 CNS) | TGI (LOX IMVI melanoma) | TGI (EKVX NSCLC) | TGI (SK-MEL-28 melanoma) | TGI (UACC-62 melanoma) | TGI (SF-295 CNS) | TGI (UO-31 renal)

CC(=O)OCc1c(C)c2ccccc2n1C(C)=O
> 100 µM: TGI (U251 CNS) | TGI (TK-10 renal) | TGI (LOX IMVI melanoma) | TGI (EKVX NSCLC) | TGI (SK-MEL-28 melanoma) | TGI (UACC-62 melanoma) | TGI (SF-295 CNS) | TGI (UO-31 renal)

CCOC(=O)NN(C(=O)OCC)C(C(=O)c1ccc(Cl)cc1)=C1NCCN1
> 100 µM: TGI (U251 CNS) | TGI (TK-10 renal) | TGI (LOX IMVI melanoma) | TGI (NCI-H460 lung) | TGI (EKVX NSCLC) | TGI (SK-MEL-28 melanoma) | TGI (UACC-62 melanoma) | TGI (SF-295 CNS) | TGI (UO-31 renal)

CCc1cccc(CC)c1NC(=O)c1ccn2c1CCc1cnc(Nc3ccc(N4CCN(C)CC4)cc3OC)nc1-2
16.2 µM: TGI (TK-10 renal)
19.6 µM: TGI (EKVX NSCLC)
7.74 µM: TGI (UO-31 renal)
3.55 µM: TGI (SK-MEL-28 melanoma)
inactive: GI50 (U251 CNS) 1.84 µM | GI50 (TK-10 renal) 2.93 µM | GI50 (EKVX NSCLC) 3.02 µM | GI50 (SK-MEL-28 melanoma) 1.76 µM | GI50 (UACC-62 melanoma) 2.08 µM | GI50 (SF-295 CNS) 1.62 µM | GI50 (UO-31 renal) 1.55 µM | GI50 (BT-549 breast) 2.23 µM
4.52 µM: TGI (UACC-62 melanoma)
5.99 µM: TGI (U251 CNS)
10.7 µM: TGI (NCI-H460 lung)
active: GI50 (NCI-H460 lung) 0.0814 µM
6.63 µM: TGI (BT-549 breast)
3.73 µM: TGI (SF-295 CNS)

Cc1cn2c(/C=N/N=C(N)N)c(-c3cc(Cl)sc3Cl)nc2s1
> 50 µM: TGI (NCI-H460 lung)
2.95 µM: TGI (TK-10 renal)
inactive: GI50 (TK-10 renal) 1.15 µM | GI50 (NCI-H460 lung) 1.74 µM

CN/N=C(/CC(=O)c1sc(-n2nc(-c3ccccc3)cc2-c2ccccc2)nc1C)C(=O)Nc1ccc(Cl)c(Cl)c1
17.7 µM: TGI (EKVX NSCLC)
> 100 µM: TGI (U251 CNS) | TGI (LOX IMVI melanoma) | TGI (NCI-H460 lung) | TGI (SK-MEL-28 melanoma) | TGI (UACC-62 melanoma) | TGI (SF-295 CNS) | TGI (UO-31 renal)

CC(C)N(C(=O)C12C3C4C5C3C1(C#N)C5C42)C(C)C (stereo not given)
> 100 µM: TGI (U251 CNS) | TGI (TK-10 renal) | TGI (LOX IMVI melanoma) | TGI (NCI-H460 lung) | TGI (EKVX NSCLC) | TGI (SK-MEL-28 melanoma) | TGI (UACC-62 melanoma) | TGI (SF-295 CNS) | TGI (UO-31 renal)

Cc1ccc(S(=O)(=O)NC(=O)C#CCOC2CCCCO2)cc1 (stereo not given)
> 100 µM: TGI (U251 CNS) | TGI (TK-10 renal) | TGI (LOX IMVI melanoma) | TGI (NCI-H460 lung) | TGI (EKVX NSCLC) | TGI (SK-MEL-28 melanoma) | TGI (UACC-62 melanoma) | TGI (SF-295 CNS) | TGI (UO-31 renal)
